Laboratory results from patent publication US11306062B2, “Forms of fedratinib dihydrochloride” (Johnson Matthey Public Limited Company, priority 2019, dated 2022).

Assays:
[1] = Retention of Form A on slurrying in multiple solvents (XRPD); type: physicochemical; settings: ~30 mg in 0.2 mL of each of water, ethanol, MTBE, IPA, IPAc, 3-methyl-1-butanol, toluene, anisole, acetone, THF, MEK, MIBK, DCM, 1,4-dioxane, 2-butanol, 2-methyl THF, isobutyl acetate, tert-butanol, methyl cyclohexane, CPME; slurried about 3 days at 20° C.
Description: (§1) XRPD patterns are obtained using a Bruker D8 Advance equipped with a Cu Kα radiation source (λ=1.54 Å), a 9-position sample holder and a LYNXEYE super speed detector. Samples are placed on zero-background, silicon plate holders for analysis. One skilled in the art would recognize that the ° 2θ values and the relative intensity values are generated by performing a peak search on the measured data and the d-spacing values are calculated by the instrument from the ° 2θ values using Bragg's equation. One skilled in the art would further recognize that the relative intensity for the measured peaks may vary as a result of sample preparation, orientation and instrument used, for example.
In another embodiment, Form A of fedratinib diHCl is retained by producing a slurry. […]

[2] = Dynamic vapor sorption (DVS) humidity cycling, solid analysed by XRPD; type: physicochemical; settings: start 50% relative humidity, up to 90%, down to 0%, 10% steps, cycle repeated 3 times
Description: as §1
In another embodiment, amorphous fedratinib diHCl is prepared by: • a) subjecting Form A of fedratinib diHCl to a dynamic vapor sorption method to yield amorphous fedratinib diHCl, wherein the dynamic vapor sorption method comprises exposing the Form A of fedratinib diHCl to a relative humidity of about 50% and adjusting the relative humidity to between about 0-90% with about a 10% increase or decrease in humidity at each step for 3 cycles.
Form A of fedratinib diHCl is subjected to DVS with initial exposure to 50% relative humidity. The relative humidity is then increased to 90% with a 10% increase in humidity at each step. […]

Compound: Cc1cnc(Nc2ccc(OCCN3CCCC3)cc2)nc1Nc1cccc(S(=O)(=O)NC(C)(C)C)c1 [Form A of fedratinib diHCl, N-tert-butyl-3-[[5-methyl-2-[4-(2-pyrrolidin-1-ylethoxy)anilino]pyrimidin-4-yl]amino]benzenesulfonamide]
- solid form by XRPD after slurry [1]: determined to be Form A of fedratinib diHCl
- solid form by XRPD after DVS [2]: determined to be amorphous fedratinib diHCl
